Source: ChEMBL document CHEMBL3627608, “Crystal structures of human RIP2 kinase catalytic domain complexed with ATP-competitive inhibitors: Foundations for understanding inhibitor selectivity” (Bioorg Med Chem, 2015)

Legend:
[1] = target: T1, Ephrin type-A receptor 6 (Homo sapiens) (UniProt Q9UF33); experiment: Inhibition of EPHA6 (unknown origin) at 10 uM after 120 mins P33 radiolabeled kinase activity assay
T1 sequence (whole entry): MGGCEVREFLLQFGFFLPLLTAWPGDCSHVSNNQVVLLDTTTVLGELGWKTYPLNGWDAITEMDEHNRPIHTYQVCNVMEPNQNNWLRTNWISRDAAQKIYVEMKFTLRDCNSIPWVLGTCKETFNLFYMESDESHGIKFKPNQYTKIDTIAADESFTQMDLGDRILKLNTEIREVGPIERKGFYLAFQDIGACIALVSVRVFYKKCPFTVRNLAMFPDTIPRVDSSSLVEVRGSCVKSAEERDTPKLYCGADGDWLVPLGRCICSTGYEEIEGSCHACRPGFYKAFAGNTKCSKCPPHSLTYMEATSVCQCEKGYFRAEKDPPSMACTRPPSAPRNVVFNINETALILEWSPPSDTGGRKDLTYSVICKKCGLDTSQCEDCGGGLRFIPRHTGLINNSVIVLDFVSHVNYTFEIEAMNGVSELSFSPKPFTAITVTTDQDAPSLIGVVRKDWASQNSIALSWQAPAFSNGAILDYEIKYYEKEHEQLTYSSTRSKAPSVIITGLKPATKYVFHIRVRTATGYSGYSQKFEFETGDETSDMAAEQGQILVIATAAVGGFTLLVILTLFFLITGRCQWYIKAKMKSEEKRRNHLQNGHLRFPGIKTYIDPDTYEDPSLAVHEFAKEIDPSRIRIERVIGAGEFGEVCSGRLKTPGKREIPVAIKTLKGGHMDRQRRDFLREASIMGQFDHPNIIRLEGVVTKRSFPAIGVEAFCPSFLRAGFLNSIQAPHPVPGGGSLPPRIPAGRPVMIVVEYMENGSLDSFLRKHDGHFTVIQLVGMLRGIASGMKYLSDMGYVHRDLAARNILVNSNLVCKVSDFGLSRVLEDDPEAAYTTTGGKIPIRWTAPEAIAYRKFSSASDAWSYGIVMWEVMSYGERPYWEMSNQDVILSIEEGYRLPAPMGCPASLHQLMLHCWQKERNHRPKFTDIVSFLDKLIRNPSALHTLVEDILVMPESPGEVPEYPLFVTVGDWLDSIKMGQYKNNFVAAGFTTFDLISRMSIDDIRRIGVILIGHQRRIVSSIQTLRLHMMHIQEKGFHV

[2] = target: T2, Beta-adrenergic receptor kinase 1 (Homo sapiens) (UniProt P25098); experiment: Inhibition of GRK2 (unknown origin) at 10 uM after 120 mins P33 radiolabeled kinase activity assay
T2 sequence (whole entry): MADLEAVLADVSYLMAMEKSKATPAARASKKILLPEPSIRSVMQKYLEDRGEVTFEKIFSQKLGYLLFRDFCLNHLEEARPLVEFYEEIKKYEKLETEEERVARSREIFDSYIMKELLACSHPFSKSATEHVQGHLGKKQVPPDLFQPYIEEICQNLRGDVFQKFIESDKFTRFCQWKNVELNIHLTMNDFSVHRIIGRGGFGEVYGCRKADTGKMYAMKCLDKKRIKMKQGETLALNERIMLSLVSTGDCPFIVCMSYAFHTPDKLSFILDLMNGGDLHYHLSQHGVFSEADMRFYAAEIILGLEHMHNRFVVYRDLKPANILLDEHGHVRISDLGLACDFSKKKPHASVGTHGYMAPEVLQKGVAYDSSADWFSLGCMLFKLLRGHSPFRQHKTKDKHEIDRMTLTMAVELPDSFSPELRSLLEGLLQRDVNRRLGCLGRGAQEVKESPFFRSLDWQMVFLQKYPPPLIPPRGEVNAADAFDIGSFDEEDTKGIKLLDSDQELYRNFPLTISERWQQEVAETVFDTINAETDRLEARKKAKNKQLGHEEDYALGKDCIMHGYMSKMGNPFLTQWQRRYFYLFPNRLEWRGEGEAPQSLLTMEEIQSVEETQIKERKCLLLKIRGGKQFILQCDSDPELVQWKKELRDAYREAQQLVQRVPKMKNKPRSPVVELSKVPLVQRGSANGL

[3] = target: cAMP-dependent protein kinase catalytic subunit gamma (Homo sapiens) (UniProt P22612); experiment: Inhibition of PKAcgamma (unknown origin) at 10 uM after 120 mins P33 radiolabeled kinase activity assay
[4] = target: Mitogen-activated protein kinase kinase kinase 12 (Homo sapiens) (UniProt Q12852); experiment: Inhibition of DLK (unknown origin) at 10 uM after 120 mins P33 radiolabeled kinase activity assay
[5] = target: Mitogen-activated protein kinase 8 (Homo sapiens) (UniProt P45983); experiment: Inhibition of JNK1 (unknown origin) at 10 uM after 120 mins P33 radiolabeled kinase activity assay
[6] = target: Tyrosine-protein kinase FRK (Homo sapiens) (UniProt P42685); experiment: Inhibition of FRK (unknown origin) at 10 uM after 120 mins P33 radiolabeled kinase activity assay
[7] = target: Calcium/calmodulin-dependent protein kinase type 1B (Homo sapiens) (UniProt Q6P2M8); experiment: Inhibition of CAMK1beta (unknown origin) at 10 uM after 120 mins P33 radiolabeled kinase activity assay
[8] = target: Dual specificity protein kinase CLK4 (Homo sapiens) (UniProt Q9HAZ1); experiment: Inhibition of CLK4 (unknown origin) at 10 uM after 120 mins P33 radiolabeled kinase activity assay
[9] = target: T3, Serine/threonine-protein kinase STK11 (Homo sapiens) (UniProt Q15831); experiment: Inhibition of LKB1 (unknown origin) at 10 uM after 120 mins P33 radiolabeled kinase activity assay
T3 sequence (whole entry): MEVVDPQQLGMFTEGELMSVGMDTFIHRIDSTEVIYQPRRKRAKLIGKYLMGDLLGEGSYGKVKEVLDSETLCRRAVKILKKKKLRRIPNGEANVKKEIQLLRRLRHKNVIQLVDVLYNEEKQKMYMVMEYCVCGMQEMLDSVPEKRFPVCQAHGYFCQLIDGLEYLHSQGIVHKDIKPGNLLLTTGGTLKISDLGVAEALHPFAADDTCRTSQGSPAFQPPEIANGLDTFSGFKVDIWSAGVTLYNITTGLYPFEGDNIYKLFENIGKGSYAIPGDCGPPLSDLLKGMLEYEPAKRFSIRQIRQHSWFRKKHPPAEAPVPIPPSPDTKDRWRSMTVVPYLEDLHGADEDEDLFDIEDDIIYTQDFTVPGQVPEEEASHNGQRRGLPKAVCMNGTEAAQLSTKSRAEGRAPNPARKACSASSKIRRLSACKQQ

[10] = target: Mitogen-activated protein kinase kinase kinase 1 (Homo sapiens) (UniProt Q13233); experiment: Inhibition of MEKK1 (unknown origin) at 10 uM after 120 mins P33 radiolabeled kinase activity assay
[11] = target: Mitogen-activated protein kinase kinase kinase kinase 2 (Homo sapiens) (UniProt Q12851); experiment: Inhibition of GCK (unknown origin) at 10 uM after 120 mins P33 radiolabeled kinase activity assay
Sequence of Mitogen-activated protein kinase kinase kinase kinase 2 (Homo sapiens) (Q12851 whole entry, looked up): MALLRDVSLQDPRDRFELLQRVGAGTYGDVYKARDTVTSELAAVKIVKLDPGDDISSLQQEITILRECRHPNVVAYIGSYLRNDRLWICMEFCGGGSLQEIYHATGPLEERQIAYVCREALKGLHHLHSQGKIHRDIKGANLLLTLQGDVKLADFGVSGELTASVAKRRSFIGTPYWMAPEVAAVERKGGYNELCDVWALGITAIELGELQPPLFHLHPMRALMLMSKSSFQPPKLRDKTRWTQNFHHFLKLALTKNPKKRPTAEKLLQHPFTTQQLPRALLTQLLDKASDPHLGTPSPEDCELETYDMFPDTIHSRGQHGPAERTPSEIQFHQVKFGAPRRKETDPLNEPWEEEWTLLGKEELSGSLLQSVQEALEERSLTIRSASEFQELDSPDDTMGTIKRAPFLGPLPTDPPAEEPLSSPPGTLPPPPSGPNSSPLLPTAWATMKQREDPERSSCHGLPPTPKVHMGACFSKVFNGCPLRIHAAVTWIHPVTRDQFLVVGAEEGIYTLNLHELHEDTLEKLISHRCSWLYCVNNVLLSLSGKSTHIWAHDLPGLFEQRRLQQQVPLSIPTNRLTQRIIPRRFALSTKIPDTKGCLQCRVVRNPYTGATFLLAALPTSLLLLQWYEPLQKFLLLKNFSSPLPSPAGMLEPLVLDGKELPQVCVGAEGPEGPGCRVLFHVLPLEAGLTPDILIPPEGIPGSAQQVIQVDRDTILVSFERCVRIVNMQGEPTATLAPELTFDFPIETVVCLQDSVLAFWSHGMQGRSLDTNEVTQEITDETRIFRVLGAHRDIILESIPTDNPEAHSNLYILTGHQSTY

Sequence of Mitogen-activated protein kinase kinase kinase 1 (Homo sapiens) (Q13233 whole entry): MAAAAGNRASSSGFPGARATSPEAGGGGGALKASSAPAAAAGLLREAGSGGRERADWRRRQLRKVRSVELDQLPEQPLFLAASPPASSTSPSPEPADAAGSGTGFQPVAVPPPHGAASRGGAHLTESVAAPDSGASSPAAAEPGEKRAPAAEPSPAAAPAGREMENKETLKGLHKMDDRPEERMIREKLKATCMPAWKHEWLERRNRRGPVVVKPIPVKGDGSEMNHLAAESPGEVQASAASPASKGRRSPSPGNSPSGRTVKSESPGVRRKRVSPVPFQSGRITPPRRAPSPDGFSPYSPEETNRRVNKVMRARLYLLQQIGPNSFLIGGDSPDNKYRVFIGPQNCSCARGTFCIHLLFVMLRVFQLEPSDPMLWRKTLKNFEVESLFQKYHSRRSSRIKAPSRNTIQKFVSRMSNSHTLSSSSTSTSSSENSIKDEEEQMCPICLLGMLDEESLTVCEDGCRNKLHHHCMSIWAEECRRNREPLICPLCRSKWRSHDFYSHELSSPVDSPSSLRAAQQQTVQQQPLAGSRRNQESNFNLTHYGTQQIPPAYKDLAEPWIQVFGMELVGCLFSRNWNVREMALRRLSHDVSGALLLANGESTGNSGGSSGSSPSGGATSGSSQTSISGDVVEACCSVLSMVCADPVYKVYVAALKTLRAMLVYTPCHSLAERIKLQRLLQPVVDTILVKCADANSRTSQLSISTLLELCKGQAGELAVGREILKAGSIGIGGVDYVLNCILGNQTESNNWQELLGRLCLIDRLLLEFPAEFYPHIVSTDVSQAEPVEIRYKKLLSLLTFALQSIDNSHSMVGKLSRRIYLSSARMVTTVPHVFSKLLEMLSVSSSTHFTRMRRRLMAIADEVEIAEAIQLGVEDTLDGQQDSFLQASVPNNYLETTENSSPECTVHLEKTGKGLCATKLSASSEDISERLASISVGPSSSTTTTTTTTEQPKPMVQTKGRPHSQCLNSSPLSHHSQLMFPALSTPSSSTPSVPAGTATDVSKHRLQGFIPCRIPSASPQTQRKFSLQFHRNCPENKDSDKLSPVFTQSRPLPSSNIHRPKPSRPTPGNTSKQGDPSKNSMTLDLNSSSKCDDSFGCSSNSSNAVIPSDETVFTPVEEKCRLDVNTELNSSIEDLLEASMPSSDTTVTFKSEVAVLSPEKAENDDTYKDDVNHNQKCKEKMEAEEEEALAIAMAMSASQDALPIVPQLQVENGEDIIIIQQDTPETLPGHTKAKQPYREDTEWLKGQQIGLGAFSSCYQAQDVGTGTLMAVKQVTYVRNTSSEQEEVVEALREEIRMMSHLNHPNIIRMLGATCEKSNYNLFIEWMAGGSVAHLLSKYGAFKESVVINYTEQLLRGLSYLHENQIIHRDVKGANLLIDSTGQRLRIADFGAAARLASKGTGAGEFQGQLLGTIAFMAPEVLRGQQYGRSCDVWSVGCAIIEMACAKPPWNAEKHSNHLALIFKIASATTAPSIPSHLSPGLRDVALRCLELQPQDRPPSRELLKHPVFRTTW
Sequence of cAMP-dependent protein kinase catalytic subunit gamma (Homo sapiens) (P22612 2-351 limits assumed): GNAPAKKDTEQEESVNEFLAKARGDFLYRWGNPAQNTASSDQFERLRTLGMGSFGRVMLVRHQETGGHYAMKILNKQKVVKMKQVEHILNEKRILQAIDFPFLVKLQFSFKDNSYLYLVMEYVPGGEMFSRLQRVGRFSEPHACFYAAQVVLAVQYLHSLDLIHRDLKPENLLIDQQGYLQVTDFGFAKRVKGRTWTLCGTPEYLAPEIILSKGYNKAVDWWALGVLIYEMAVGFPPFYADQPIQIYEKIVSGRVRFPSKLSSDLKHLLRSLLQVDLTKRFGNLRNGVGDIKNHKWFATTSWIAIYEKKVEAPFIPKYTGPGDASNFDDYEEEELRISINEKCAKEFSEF
Sequence of Tyrosine-protein kinase FRK (Homo sapiens) (P42685 whole entry): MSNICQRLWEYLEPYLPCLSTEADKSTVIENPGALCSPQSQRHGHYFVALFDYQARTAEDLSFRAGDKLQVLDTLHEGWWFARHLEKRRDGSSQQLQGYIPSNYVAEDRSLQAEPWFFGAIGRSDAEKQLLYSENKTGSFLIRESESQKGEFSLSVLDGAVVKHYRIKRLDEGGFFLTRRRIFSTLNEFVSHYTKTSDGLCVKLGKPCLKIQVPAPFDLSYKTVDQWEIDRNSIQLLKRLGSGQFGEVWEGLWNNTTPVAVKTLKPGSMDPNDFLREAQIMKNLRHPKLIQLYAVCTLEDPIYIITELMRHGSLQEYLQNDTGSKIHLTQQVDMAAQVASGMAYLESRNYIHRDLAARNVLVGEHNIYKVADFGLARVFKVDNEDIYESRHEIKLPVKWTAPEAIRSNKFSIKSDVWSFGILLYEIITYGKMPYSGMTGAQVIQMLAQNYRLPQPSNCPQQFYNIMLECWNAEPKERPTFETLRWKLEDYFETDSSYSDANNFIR
Sequence of Calcium/calmodulin-dependent protein kinase type 1B (Homo sapiens) (Q6P2M8 whole entry): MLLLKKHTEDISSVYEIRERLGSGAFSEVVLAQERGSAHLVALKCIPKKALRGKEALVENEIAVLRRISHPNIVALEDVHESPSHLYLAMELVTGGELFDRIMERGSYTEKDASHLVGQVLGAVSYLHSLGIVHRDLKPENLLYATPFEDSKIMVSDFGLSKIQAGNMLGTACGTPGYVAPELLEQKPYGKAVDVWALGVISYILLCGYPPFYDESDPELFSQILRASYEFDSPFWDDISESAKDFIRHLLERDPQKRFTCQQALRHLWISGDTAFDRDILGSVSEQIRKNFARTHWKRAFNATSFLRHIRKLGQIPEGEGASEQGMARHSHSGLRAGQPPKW
Sequence of Dual specificity protein kinase CLK4 (Homo sapiens) (Q9HAZ1 whole entry, looked up): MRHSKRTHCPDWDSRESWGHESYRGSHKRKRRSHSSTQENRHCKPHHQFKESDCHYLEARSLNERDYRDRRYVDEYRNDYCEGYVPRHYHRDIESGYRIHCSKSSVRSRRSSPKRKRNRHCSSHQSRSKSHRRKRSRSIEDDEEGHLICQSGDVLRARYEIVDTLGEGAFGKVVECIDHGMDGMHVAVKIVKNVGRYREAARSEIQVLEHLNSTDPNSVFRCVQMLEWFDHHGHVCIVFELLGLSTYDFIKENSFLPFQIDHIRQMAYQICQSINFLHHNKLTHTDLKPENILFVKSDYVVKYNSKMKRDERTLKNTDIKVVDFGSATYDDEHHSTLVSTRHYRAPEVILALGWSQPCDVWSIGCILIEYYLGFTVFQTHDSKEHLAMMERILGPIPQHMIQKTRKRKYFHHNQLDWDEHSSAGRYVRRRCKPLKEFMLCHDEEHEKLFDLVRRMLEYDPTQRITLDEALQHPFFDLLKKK
Sequence of Mitogen-activated protein kinase kinase kinase 12 (Homo sapiens) (Q12852 whole entry, looked up): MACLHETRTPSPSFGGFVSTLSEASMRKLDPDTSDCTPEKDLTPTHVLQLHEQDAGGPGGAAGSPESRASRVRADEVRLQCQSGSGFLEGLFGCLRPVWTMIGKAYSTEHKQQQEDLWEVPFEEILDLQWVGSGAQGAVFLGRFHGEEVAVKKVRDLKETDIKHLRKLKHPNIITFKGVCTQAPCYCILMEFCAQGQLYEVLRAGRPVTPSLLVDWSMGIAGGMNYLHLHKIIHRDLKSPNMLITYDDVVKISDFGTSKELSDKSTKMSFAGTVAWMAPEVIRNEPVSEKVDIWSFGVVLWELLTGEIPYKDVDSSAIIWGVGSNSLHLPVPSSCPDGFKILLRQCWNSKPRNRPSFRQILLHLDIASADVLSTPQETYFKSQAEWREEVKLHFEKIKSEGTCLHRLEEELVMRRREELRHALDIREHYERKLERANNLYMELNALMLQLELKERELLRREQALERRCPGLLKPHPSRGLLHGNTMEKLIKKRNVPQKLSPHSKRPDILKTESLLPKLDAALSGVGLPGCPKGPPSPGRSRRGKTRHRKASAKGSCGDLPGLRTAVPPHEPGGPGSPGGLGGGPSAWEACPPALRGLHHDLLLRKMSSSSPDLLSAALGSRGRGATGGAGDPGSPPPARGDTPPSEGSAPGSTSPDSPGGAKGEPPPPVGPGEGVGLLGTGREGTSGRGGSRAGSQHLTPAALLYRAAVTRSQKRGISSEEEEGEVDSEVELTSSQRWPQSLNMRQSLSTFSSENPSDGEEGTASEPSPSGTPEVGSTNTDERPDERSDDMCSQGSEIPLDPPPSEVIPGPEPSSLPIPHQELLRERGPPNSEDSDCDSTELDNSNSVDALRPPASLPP

| SMILES | inhibition [1] | inhibition [2] | inhibition [3] | inhibition [4] | inhibition [5] | inhibition [6] | inhibition [7] | inhibition [8] | inhibition [9] | inhibition [10] | inhibition [11] |
| --- | --- | --- | --- | --- | --- | --- | --- | --- | --- | --- | --- |
| COCCNC(=O)c1ccc2c(c1)nc(-c1cnc(-c3ccc(Cl)cc3)[nH]1)n2CCOC | 31.7% | 2.91% | 0.62% | 5.39% | 2.55% | 54.5% | 2.47% | 41.3% | 3.09% | -3.24% | -3.21% |
| CS(=O)(=O)c1cccc(Nc2nccc(-c3sc(N4CCOCC4)nc3-c3cccc(NS(=O)(=O)c4c(F)cccc4F)c3)n2)c1 | 95.8% | 4.42% | 9.35% | 53% | 31.4% | 96.9% | 46.8% | 36.7% | 46.2% | -3% | -0.78% |
| CC(C)(C)c1cc(NC(=O)Nc2ccc(Oc3ccncc3)cc2)no1 | 93.7% | 2.3% | 78.7% | 8.04% | 14.2% | 99% | 9.84% | 36.5% | 3.9% | 25.2% | 57.4% |
